Data from patent publication US20040059104A1, “Nucleotide mimics and their prodrugs” (priority 2002, published 2004).
Like-named read-outs stand apart in the source and are kept apart here.

Legend:
[1] = biological target: T1, HIV Reverse Transcriptase (Type B, 66 kDa subunit) (Human immunodeficiency virus type 1 group M subtype B, UniProt P04585); experiment: HIV Reverse Transcriptase inhibition assays (RNA-directed DNA polymerization, PicoGreen fluorescence); type: biochemical; details: Table 1; template (homopolymer or heteropolymer RNA) not stated; read-out: Ki, Inhibition of HIV Reverse Transcriptase by Nucleotide Mimics
T1 construct: purified HIV Reverse Transcriptase (Type B, 66 kDa subunit)
Experimental: The assays employed to measure inhibition of HIV Reverse Transcriptase (HIV RT) catalyzed/RNA-directed DNA polymerization are described below. The effectiveness of the compounds of the present invention as inhibitors of HIV RT-catalyzed DNA polymerization was measured in the following assays.
This assay was used to measure the ability of the nucleotide mimics of the present invention to inhibit the enzymatic synthesis of complementary strand DNA from a DNA-primed template of homopolymeric RNA. This assay is a modification of a published procedure (Seville, et al., “Fluorometric Assay for DNA Polymerases and Reverse Transcriptase”, BioTechniques 1996, 21, 664-72).
The compounds were tested at various concentrations up to 500 μM final concentration. DNA polymerase activity was measured in a reaction buffer containing primed-RNA template and dTTP diluted to appropriate concentrations in assay buffer. Nucleotide mimics of the present invention were diluted in buffer and pipetted into the wells of a 96-well plate. The reaction was initiated by addition of enzyme and allowed to proceed at 37° C. for 10 minutes. The reaction was quenched by addition of 5 μL 0.2 M EDTA, pH 8.0.
200 μL of diluted PicoGreen dsDNA Quantitation Reagent (Molecular Probes, Inc, Eugene, Oreg.) was added to each well of a 96-well plate and incubated at room temperature for 5 minutes. Plate wells were read on a microplate fluorometer (Molecular Devices Corp., Sunnyvale, Calif.). The wells were excited at 480 nm and the fluorescence emission intensity (RFU) was measured at 520 nm. The percentage of inhibition was calculated according to the following equation:
% Inhibition=[1−(RFU in test reaction−RFU in blank)/(RFU in control reaction−RFU in blank)]×100.
Each inhibitor was titrated over an appropriate range of concentrations, and inhibition constants were determined using the following equations:
v=Vm[S]/(Km(1+[I]/Ki)+[S])
Certain compounds of the present invention were also tested to determine their ability to inhibit HIV RT-catalyzed DNA polymerization on a heteropolymeric primed-RNA template in the presence of all four natural deoxynucleotide triphosphate (dNTP) substrates. This assay is a modification of a published procedure (Parker et al., “Mechanism of Inhibition of Human Immunodeficiency Virus Type 1 Reverse Transcriptase and Human DNA Polymerases α, β, and γ by the 5′-Triphosphates of Carbovir,3′-Azido-3′-deoxythymidine,2′-3′-Dideoxyguanosine, and 3′-Deoxythymidine”, J. Biol. Chem. 1991, 266 (3), 1754-62).
HIV RT DNA polymerase activity was measured in a reaction buffer containing primed-ribosomal RNA template and dNTPs diluted to appropriate concentrations in assay buffer and pipetted into 1.5 mL microcentrifuge tubes. Nucleotide mimics of the present invention were diluted in buffer and tested at various concentrations up to 5 μM final concentration. The reaction was initiated by addition of enzyme and allowed to proceed at 42° C. for 60 to 90 minutes. The reaction was quenched by addition of 12 μL 0.2 M EDTA, pH 8.0.
50 μL each of reaction was transferred to the well of a 96-well plate (in duplicate). 200 μL of diluted PicoGreen dsDNA Quantitation Reagent was added to each well of a 96-well plate and incubated at room temperature for 5 minutes. Plate wells were read on a microplate fluorometer. The wells were excited at 480 nm and the fluorescence emission intensity (RFU) was measured at 520 nm. The percentage of inhibition and inhibition constants […] were determined for representative compounds as described above.

[2] = system: Escherichia coli; experiment: Antimicrobial assay, minimal inhibitory concentration; type: cell-based; details: for MIC: Escherichia coli, read-out: E. coli MIC
Experimental: To examine the antimicrobial potential of the nucleotide mimics of the present invention an assay was employed that allowed the screening of a large number of compounds simultaneously. The type of bacteria chosen to screen the compounds are organisms associated with human disease and represent major groups of bacteria based on their structure and metabolism. Bacterial cultures of Escherichia coli and Staphylococcus aureus were incubated overnight at 37° C. in a shaker incubator. A lawn of each overnight bacterial culture was made by plating […] of bacteria on agar plates containing Nutrient Broth. Immediately after plating, sterile blank paper discs were put on top of the lawn and a compound was applied to each blank paper disc. Plates were then incubated overnight and examined for the inhibition of bacterial growth the following day. […] The plates were incubated overnight at 37° C. and then examined spectrophotometrically at 600 nm to determine the minimum concentration of each compound that inhibited replication of bacteria as determined by no increase in absorbance at 600 nm.

[3] = in vitro
Experimental: Typically the total volume used for the experiment was 500 μl. The final concentrations of the reaction components were as follows:
The reacton mixtures were made up and incubated at 37° C. At appropriate times aliquots of 25 μl were removed and added to 65 μl ice-cold methanol. These solutions were our at −20° C. and typically overnight. After incubation samples were inutes at high speed in a microcentrifuge. The supernatant was nd the extract was dried under vacuum in a LabConco Centrivap Concentrator. The dried extracts were resuspended in dH2O and filtered to remove particulate before analysis on reverse phase HPLC.
The reverse phase HPLC columns used for the analysis were either a Phenomenex C18 Aqua column (2×100 mm) or the Phenomenex C18 Aqua column (3×150 mm) used with the appropriate guard column. The HPLC was run at 0.2 ml/min (for the 2×100 mm column) or at 0.5 ml/min (for the 3×150 mm column) with the following buffer system: 5 mM tetrabutylammonium acetate, 50 mM ammonium phosphate, and an acetonitrile gradient running from 5% up to as high as 60%. The amount of remaining parent compound at each time point was used to determine the half-life of the compound. […] Unmodified nucleoside triphosphates were used as positive controls.

[4] = in vitro; details: for half-life at 500 μM: human, pH 7.4
Experimental: The stability of compounds in cell extracts was examined as follows:
Cell lysis buffer was added to cell pellets and the cells frozen and thawed 3× using dry ice. The lysis buffer (LB) was composed of the following: 50 mM Tris-HCl, pH 7.4 (100 μl/ml 10× stock), 20% glycerol (200 μl/ml), and 0.5% Triton X-100 (5 μl/ml). 100 μl of LB was added to each microfuge tube containing 10^7 frozen CEM cells. After the cells were lysed the extracts were centrifuged at high speed in a microcentrifuge for 5 minutes and the clarified cell extract transferred to a new tube. The cell stability reaction mixtures contained concentrations of buffer, magnesium, nucleotide, and cell extract as shown below:
The reaction mixtures were incubated at 37° C. At each time point, including at time zero, 12.5 μl aliquots were added to 40 μl ice-cold methanol. […] The samples were incubated in methanol for at least 60 minutes and typically overnight at −20° C. prior to further processing. The cell extracts were centrifuged at high speed in refrigerated microcentrifuge for 20 minutes and the supernatant transferred to a new tube. The extract was then dried under vacuum in a LabConco Centrivap Concentrator. The samples were then resuspended in 40 or 50 μl dH2O, filtered to remove any particulate, and analyzed by reverse phase HPLC.
The reverse phase HPLC columns used for the analysis were either a Phenomenex C18 Aqua column (2×100 mm) or the Phenomenex C18 Aqua column (3×150 mm) used with the appropriate guard column. The HPLC flow rate was either 0.2 ml/min (for the 2×100 mm column) or 0.5 ml/min (for the 3×150 mm column) with the following buffer system: 5 mM tetrabutylammonium acetate, 50 mM ammonium phosphate, and an acetonitrile gradient running from 5% up to as high as 60%. The amount of remaining parent compound at each time point was used to determine the half-life of the compound. […] Unmodified nucleoside triphosphates were used as positive controls.

[5] = overnight at 37° C., tested 0-200 μg/ml, NA = Not active
[6] = value in brackets beside the μg/ml value

Compound: 3′-Azido-3′-deoxythymidine 5′-α-P-borano-β,γ-imidotriphosphate [Compound 23]
- Ki [1]: 105 nM
- E. coli MIC [2, 5]: 50 to 100 µg/mL
- E. coli MIC [2, 6]: (99-198) uM
- Half-Life, Serum Half-Lives of NTPs and AZT Triphosphate Mimics ([3]; bovine, serum): 36 h

Compound: [BH3-][P+](O)(OCC1OC(n2cc(C)c(=O)[nH]c2=O)CC1N=[N+]=[N-])OP(=O)(O)C(Cl)(Cl)P(=O)(O)O (single isomer, unassigned) [Compound 26-isomer 2, 3′-Azido-3′-deoxythymidine 5′-α-P-borano-β,γ-(dichloromethylene)triphosphate]
- Ki [1]: 74 nM
- MIC [2, 5]: 10 µg/mL
- MIC [2, 6]: 17.5 µM
- half-life at 500 μM ([3]; bovine, serum, Serum Half-Lives of NTPs and AZT Triphosphate Mimics): 48 h
- half-life at 500 μM [4]: > 48 h

Compound: [BH3-][P+](O)(OCC1OC(n2cc(C)c(=O)[nH]c2=O)CC1N=[N+]=[N-])OP(=O)(O)C(F)(F)P(=O)(O)O (single isomer, unassigned) [Compound 27-isomer 2, 3′-Azido-3′-deoxythymidine 5′-α-P-borano-β,γ-(difluoromethylene)triphosphate]
- Ki [1]: 61 nM
- E. coli MIC [2, 5]: 50 µg/mL
- E. coli MIC [2, 6]: (93) uM

Compound: BP(=O)(OCC1OC(n2cc(C)c(=O)[nH]c2=O)CC1N=[N+]=[N-])OP(=O)(O)C(F)(F)P(=O)(O)O (single isomer, unassigned; isomer 3) [Compound 27-Isomer, 3′-Azido-3′-deoxythymidine 5′-α-P-borano-β,γ-(difluoromethylene)triphosphate]
- Half-Life, Serum Half-Lives of AZT Triphosphate Mimic Prodrugs ([3]; bovine, serum): >48 h

Compound: BP(=O)(OC[C@@H]1O[C@H](n2cc(C)c(=O)[nH]c2=O)C[C@H]1N=[N+]=[N-])OP(=O)(O)OP(=O)(O)O (stereo partly drawn) [AZT 5′-α-P-boranotriphosphate, reference compound]
- Half-Life, Serum Half-Lives of NTPs and AZT Triphosphate Mimics ([3]; bovine, serum): 6 h

Compound: Cc1cn([C@H]2C[C@H](N=[N+]=[N-])[C@@H](COP(=O)(O)OP(=O)(O)OP(=O)(O)O)O2)c(=O)[nH]c1=O [AZT Triphosphate, 3′-azido-3′-deoxythymidine (AZT, an anti-HIV drug) triphosphate, reference compound]
- Half-Life, Serum Half-Lives of NTPs and AZT Triphosphate Mimics ([3]; bovine, serum): 2 h

Compound: Cc1cn([C@H]2C[C@H](N=[N+]=[N-])[C@@H](CO)O2)c(=O)[nH]c1=O [AZT, 3′-azido-3′-deoxythymidine, reference compound]
- MIC [2, 5]: 2 µg/mL
- MIC [2, 6]: 7.5 µM

Compound: Nc1ncnc2c1ncn2[C@@H]1O[C@H](COP(=O)(O)OP(=O)(O)OP(=O)(O)O)[C@@H](O)[C@H]1O [Adenosine Triphosphate, reference compound]
- Half-Life, Serum Half-Lives of NTPs and AZT Triphosphate Mimics ([3]; Table 6, 50% fetal calf serum, 37° C., 500 μM, time points through 48 hours): 2 h
- half-life at 500 μM ([3]; bovine, 50% fetal calf serum, Serum Half-Lives of AZT Triphosphate Mimic Prodrugs, Table 7, 37° C., 500 μM, time points through 48 hours): 1.5 h
- half-life at 500 μM ([3]; bovine, 50% fetal calf serum, Serum Half-Lives of Gemcitibine Diphosphate Mimics and Their Prodrugs, Table 8, 37° C., 500 μM, time points through 48 hours): 2.5 h
- Half-Life, Cell Extract Half-Lives of AZT 5'-α-P-borano-β,γ-(difluoromethylene) triphosphate Prodrugs ([4]; Table 10, 50% CEM cell extract, 37° C., 500 μM, time points through 48 hours): .25 h
- Half-Life, Cell Extract Half-Lives of Gemcitibine 5'-Methylendiphosphonate and its Prodrugs ([4]; Table 11, 50% CEM cell extract, 37° C., 500 μM, time points through 48 hours): .25 h
- half-life at 500 μM ([4]; 50% CEM cell extract): 0.25 h

Compound: Cc1cn([C@H]2C[C@H](N=[N+]=[N-])[C@@H](COP(=O)(O)NP(=O)(O)O)O2)c(=O)[nH]c1=O [Compound 8, 3′-azido-3′-deoxythymidine 5′-imidodiphosphate]
- Ki [1]: 4400 nM

Compound: BP(=O)(OC[C@H]1O[C@@H](n2cc(C)c(=O)[nH]c2=O)C[C@@H]1N=[N+]=[N-])OP(=O)(O)C(F)P(=O)(O)O (stereo partly drawn) [Compound 25, 3′-Azido-3′-deoxythymidine 5′-α-P-borano-β,γ-(fluoromethylene)triphosphate]
- Ki [1]: 27 nM

Compound: Cc1cn(C2CC(N=[N+]=[N-])C(COP(O)(=S)OP(=O)(O)C(F)(F)P(=O)(O)O)O2)c(=O)[nH]c1=O (stereo not drawn) [Compound 29, 3′-Azido-3′-deoxythymidine 5′-α-P-thio-β,γ-(difluoromethylene)triphosphate]
- Ki [1]: 90 nM

Compound: Cc1cn([C@H]2C[C@@H](N=[N+]=[N-])[C@@H](COP(=O)(O)NP(=O)(OCCSC(=O)C(C)(C)C)OCCSC(=O)C(C)(C)C)O2)c(=O)[nH]c1=O [Compound 71, 3′-Azido-3′-deoxythymidine 5′-β,β-O-di(S-pivaloyl-2-thioethyl)imidodiphosphate]
- MIC [2, 5]: 20 µg/mL
- MIC [2, 6]: 28 µM

Compound: Cc1cn([C@H]2C[C@H](O)[C@@H](COP(=O)(O)OP(=O)(O)OP(=O)(O)O)O2)c(=O)[nH]c1=O [Thymidine Triphosphate, reference compound]
- Half-Life, Serum Half-Lives of NTPs and AZT Triphosphate Mimics ([3]; bovine, serum, 500 μM): 2 h
